Columns and labels:
Assay type in all cases: subcellular
[1] = biological target: T1, EKC/KEOPS complex subunit TP53RK (Homo sapiens) (UniProt Q96S44); test: Inhibition of PRPK in human HeLa cells lysate at 10 uM pre incubated for 15 mins followed by ATP acyl phosphate probe addition and measured after 10 mins by LC-MS/MS analysis relative to control; details: time 25.0 min
T1 sequence (whole entry): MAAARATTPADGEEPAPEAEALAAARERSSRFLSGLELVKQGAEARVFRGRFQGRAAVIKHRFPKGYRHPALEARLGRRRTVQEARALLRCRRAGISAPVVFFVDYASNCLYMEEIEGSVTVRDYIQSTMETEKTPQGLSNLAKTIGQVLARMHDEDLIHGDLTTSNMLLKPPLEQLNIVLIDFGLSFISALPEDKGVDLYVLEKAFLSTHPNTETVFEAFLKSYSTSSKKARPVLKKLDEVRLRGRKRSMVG

[2] = biological target: T2, Serine/threonine-protein kinase D3 (Homo sapiens) (UniProt O94806); test: Inhibition of PKD3 in human HeLa cells lysate at 10 uM pre incubated for 15 mins followed by ADP acyl phosphate probe addition and measured after 10 mins by LC-MS/MS analysis relative to control; details: time 25.0 min
T2 sequence (whole entry): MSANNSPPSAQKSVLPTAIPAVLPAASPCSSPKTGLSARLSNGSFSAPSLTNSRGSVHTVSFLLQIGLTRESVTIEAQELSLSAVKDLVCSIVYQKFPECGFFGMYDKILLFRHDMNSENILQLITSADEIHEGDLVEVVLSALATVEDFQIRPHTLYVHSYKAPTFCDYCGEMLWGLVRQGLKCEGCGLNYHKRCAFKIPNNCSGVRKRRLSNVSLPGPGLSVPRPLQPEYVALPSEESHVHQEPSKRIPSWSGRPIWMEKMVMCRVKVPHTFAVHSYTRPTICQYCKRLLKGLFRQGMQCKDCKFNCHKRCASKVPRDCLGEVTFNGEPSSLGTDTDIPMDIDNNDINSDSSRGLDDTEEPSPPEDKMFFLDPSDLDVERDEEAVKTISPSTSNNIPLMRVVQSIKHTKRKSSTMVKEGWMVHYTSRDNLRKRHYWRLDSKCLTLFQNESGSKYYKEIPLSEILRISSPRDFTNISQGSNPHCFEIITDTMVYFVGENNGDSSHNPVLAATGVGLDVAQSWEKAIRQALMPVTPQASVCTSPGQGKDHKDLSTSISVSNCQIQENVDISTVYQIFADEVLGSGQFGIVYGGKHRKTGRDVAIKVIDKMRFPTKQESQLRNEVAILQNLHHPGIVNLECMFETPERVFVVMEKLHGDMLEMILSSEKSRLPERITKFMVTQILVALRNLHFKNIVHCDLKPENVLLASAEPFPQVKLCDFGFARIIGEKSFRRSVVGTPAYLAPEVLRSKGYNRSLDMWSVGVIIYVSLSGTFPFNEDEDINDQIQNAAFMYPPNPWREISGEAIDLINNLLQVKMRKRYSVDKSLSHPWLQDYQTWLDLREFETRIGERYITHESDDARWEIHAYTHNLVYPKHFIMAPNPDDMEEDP

[3] = biological target: T3, Serine/threonine-protein kinase Sgk3 (Homo sapiens, UniProt Q96BR1); test: Inhibition of SGK3 K2 site in human HeLa cells lysate pre incubated for 15 mins followed by ATP acyl phosphate probe addition and measured after 10 mins by LC-MS/MS analysis
T3 sequence (Q96BR1 whole entry): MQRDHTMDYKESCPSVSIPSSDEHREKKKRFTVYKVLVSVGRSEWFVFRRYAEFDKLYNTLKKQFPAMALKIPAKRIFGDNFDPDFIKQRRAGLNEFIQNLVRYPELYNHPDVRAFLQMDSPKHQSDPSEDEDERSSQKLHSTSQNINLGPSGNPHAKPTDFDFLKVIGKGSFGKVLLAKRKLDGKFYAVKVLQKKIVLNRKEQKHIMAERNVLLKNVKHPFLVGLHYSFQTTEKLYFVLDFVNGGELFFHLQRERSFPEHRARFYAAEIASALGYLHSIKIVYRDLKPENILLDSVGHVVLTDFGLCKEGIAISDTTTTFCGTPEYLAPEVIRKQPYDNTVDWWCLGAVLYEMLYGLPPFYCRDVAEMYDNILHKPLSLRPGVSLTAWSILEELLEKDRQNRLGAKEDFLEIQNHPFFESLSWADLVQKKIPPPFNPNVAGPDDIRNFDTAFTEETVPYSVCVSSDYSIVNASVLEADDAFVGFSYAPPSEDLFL

[4] = biological target: Ribosomal protein S6 kinase alpha-5 (Homo sapiens, UniProt O75582); test: Inhibition of MSK1 domain 1 in human HeLa cells lysate at 2 uM pre incubated for 15 mins followed by ADP acyl phosphate probe addition and measured after 10 mins by LC-MS/MS analysis relative to control; details: time 25.0 min
Sequence of Ribosomal protein S6 kinase alpha-5 (O75582 whole entry, looked up, the tested form may be a part): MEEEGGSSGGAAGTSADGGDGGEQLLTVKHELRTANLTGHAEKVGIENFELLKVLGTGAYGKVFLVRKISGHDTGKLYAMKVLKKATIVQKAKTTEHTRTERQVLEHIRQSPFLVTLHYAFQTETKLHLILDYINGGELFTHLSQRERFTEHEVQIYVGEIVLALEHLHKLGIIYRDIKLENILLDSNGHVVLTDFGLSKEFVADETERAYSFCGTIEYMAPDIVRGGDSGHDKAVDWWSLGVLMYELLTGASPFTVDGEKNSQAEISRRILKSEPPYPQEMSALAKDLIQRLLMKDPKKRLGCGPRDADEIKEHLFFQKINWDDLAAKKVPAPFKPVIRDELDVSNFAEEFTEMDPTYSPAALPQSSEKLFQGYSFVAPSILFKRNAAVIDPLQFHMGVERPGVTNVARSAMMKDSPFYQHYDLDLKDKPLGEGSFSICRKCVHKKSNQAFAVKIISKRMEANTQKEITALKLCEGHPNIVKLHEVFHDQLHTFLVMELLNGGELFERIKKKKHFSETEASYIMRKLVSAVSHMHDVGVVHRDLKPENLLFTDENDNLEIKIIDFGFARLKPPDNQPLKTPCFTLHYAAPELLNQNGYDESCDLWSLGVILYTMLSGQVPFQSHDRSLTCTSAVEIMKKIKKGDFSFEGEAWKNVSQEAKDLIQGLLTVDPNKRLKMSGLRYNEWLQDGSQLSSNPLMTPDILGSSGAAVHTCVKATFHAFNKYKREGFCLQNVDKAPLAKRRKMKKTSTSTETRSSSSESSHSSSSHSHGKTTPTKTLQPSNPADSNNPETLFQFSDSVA

[5] = biological target: RPS6KA1/RPS6KA2/RPS6KA3 (Homo sapiens, UniProt P51812+Q15349+Q15418); test: Inhibition of RSK1/2/3 in human HeLa cells lysate at 50 uM pre incubated for 15 mins followed by ADP acyl phosphate probe addition and measured after 10 mins by LC-MS/MS analysis relative to control; details: time 25.0 min
Sequence of RPS6KA1/RPS6KA2/RPS6KA3 (P51812 whole entry, looked up): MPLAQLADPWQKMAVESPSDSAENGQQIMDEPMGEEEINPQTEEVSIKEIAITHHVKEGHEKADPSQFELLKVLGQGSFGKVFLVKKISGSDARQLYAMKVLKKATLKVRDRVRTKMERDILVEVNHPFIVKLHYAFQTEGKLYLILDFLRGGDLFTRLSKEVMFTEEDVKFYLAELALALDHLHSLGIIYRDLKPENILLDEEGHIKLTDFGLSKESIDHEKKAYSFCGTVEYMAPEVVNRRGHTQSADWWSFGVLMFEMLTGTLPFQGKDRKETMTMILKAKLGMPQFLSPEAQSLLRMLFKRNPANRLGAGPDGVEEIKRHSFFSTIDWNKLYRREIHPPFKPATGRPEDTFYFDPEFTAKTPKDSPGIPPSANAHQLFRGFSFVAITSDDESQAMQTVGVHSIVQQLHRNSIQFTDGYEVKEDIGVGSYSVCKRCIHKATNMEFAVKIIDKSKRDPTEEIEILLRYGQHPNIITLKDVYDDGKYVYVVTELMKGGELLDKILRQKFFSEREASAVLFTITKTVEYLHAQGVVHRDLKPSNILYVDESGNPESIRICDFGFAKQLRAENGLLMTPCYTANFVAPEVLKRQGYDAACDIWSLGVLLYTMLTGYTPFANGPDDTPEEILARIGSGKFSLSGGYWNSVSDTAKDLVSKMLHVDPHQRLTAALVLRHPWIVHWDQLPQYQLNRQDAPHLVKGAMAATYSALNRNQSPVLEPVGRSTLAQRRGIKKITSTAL
Sequence of RPS6KA1/RPS6KA2/RPS6KA3 (Q15349 whole entry, looked up): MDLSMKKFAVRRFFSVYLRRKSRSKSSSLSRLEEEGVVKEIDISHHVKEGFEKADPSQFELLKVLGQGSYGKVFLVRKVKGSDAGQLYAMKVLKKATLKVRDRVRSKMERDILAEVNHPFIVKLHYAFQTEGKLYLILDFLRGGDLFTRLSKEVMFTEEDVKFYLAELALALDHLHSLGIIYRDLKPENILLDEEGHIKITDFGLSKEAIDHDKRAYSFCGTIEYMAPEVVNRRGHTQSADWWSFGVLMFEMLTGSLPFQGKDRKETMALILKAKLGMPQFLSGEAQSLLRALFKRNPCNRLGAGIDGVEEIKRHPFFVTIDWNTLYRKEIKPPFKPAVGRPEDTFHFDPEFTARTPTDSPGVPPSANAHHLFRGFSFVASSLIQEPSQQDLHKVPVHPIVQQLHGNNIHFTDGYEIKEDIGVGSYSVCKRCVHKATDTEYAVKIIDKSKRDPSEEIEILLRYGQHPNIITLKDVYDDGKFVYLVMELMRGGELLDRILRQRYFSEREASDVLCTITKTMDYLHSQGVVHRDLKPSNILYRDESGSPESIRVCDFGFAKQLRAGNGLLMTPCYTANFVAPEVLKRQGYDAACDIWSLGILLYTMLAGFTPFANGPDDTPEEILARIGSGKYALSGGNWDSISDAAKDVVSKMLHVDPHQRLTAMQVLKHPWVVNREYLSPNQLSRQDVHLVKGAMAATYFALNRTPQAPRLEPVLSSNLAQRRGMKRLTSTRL
Sequence of RPS6KA1/RPS6KA2/RPS6KA3 (Q15418 whole entry, looked up): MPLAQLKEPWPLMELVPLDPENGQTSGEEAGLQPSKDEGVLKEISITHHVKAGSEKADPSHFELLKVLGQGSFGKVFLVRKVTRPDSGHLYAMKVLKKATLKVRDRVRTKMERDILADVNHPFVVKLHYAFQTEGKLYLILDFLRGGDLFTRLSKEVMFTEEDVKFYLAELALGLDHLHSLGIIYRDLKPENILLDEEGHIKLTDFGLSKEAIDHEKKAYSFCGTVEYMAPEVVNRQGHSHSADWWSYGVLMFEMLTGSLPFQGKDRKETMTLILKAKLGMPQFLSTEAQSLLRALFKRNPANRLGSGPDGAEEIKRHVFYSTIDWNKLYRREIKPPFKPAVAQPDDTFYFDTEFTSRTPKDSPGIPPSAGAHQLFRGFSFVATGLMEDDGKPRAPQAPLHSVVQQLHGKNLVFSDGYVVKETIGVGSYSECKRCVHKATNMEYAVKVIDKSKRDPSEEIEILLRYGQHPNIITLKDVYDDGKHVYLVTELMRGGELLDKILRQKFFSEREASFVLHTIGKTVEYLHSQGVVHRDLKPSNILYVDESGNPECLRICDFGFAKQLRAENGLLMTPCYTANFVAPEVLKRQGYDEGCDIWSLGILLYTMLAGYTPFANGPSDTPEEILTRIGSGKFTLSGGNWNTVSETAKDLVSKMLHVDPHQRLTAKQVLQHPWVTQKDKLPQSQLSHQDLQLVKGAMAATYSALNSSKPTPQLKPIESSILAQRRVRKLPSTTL

[6] = biological target: Glycogen synthase kinase-3 alpha (Homo sapiens, UniProt P49840); test: Inhibition of GSK3A in human HeLa cells lysate at 2 uM pre incubated for 15 mins followed by ATP acyl phosphate probe addition and measured after 10 mins by LC-MS/MS analysis relative to control; details: time 25.0 min
Sequence of Glycogen synthase kinase-3 alpha (P49840 2-483 limits assumed): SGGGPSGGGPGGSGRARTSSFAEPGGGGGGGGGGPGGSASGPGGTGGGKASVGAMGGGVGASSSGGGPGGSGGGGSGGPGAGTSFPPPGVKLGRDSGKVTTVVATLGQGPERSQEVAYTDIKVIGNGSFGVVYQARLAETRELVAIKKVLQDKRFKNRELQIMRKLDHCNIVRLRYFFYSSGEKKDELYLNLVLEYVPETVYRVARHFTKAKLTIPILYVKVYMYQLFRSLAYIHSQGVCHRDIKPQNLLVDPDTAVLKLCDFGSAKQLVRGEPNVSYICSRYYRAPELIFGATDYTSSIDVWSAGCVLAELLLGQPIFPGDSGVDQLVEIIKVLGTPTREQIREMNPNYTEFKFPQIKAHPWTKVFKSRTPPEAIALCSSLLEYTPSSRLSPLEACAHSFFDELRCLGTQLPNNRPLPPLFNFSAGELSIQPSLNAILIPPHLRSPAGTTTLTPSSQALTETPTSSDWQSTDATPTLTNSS

[7] = biological target: Serine/threonine-protein kinase N2 (Homo sapiens, UniProt Q16513); test: Inhibition of PKN2 in human HeLa cells lysate pre incubated for 15 mins followed by ATP acyl phosphate probe addition and measured after 10 mins by LC-MS/MS analysis
Sequence of Serine/threonine-protein kinase N2 (Q16513 whole entry): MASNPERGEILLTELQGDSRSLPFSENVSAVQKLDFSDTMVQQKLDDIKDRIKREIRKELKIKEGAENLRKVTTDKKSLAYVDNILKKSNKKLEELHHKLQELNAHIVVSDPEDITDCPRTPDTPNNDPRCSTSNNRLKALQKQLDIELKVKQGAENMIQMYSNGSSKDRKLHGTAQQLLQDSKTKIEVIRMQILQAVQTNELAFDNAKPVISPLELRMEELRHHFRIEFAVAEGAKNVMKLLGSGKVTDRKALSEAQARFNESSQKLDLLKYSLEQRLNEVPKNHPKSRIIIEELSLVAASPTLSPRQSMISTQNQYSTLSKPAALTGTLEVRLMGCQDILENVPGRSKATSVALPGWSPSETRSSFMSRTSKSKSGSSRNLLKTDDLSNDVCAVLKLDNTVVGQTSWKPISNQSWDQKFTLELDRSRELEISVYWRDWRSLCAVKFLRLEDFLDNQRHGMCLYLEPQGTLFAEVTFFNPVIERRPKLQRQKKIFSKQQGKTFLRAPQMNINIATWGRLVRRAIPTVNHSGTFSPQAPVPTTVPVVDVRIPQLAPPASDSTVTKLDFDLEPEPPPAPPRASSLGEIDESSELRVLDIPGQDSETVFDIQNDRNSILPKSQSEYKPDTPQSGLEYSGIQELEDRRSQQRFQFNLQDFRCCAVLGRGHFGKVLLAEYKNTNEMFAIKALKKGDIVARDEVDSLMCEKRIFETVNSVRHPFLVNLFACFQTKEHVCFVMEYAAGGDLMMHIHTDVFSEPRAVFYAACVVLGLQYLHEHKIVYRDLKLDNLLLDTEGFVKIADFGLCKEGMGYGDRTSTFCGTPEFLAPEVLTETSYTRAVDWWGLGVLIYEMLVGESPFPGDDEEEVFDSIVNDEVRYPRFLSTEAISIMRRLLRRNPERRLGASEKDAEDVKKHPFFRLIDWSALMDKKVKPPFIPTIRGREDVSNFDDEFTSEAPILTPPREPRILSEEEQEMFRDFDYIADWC

CCOc1cc(N2CCC(O)CC2)ccc1Nc1ncc2c(n1)N(C)c1ccccc1C(=O)N2C
inhibition [1]: -9.7%
inhibition [2]: -6%
IC50 [3]: > 50 µM
inhibition [4]: 21.5%
inhibition [5]: -2.1%
inhibition [6]: -5.5%
IC50 [7]: > 50 µM

— ChEMBL document CHEMBL5661979, “Pharmacological inhibition of BMK1 suppresses tumor growth through promyelocytic leukemia protein” (Cancer Cell, 2010)
